Experimental data reported in patent publication US20250304623A1, “PEPTIDES FOR INTRACELLULAR DELIVERY” (UNIVERSIDADE DE SANTIAGO DE COMPOSTELA, priority 2022, published 2025).
*: point of attachment. NHNH2 = NN*

Legend:
Format in all cases: cell-based
HepG2 cells [1] = test: EGFP mRNA delivery, robotic library screening, HepG2; conditions: HepG2 cells
Description: Cells were seeded in a 96 well plate the day before the experiment at a concentration of 50,000 cell/mL (100 μL/w) in DMEM+10% FBS+1% Gln-Abt. For robotic library screening, the delivery of EGFP-mRNA (from TriLink, fully substituted with 5-methoxyuridine, capped and polyadenylated; TriLink, CleanCap® EGFP mRNA (5moU), ref. L-7201) in six different cell lines was performed. Amphiphilic molecule stock solutions were prepared in DMSO as described above and diluted in DMEM to afford a range of concentrations. The solutions of EGFP-mRNA/amphiphilic molecule complexes were freshly prepared prior to the transfection experiments. 35 μL of the corresponding amphiphile were added to 10 μL of a solution of EGFP-mRNA at 10 ng/μL in DMEM. The mixture was shaken for 30 min at room temperature before the addition to the cells. The cell medium was aspirated, and cells were washed with PBS twice. […] After the incubation, the medium was replaced by 100 μL of fresh DMEM supplemented with 10% FBS. The total EGFP fluorescence was quantified after 72 h in a well plate reader. Amphiphile transfection efficiency was compared and normalized to Lipofectamine® MessengerMax efficiency (value of 1 in Tables 1-5 and 7; double underlined numbers). All experiments were done in triplicate.
(§1) Tables 1-7: RLuc (pDNA) or EGFP (mRNA) expression levels were normalized to Lipofectamine reagents (value=1) and expressed as fold-times signal increase. In the case of siRNA, the siRNA treated cells fluorescence was compared with siMOCK control fluorescence, while Cas9-RNP mediated knockout was measured against the fluorescence of untreated cells. In both siRNA and Cas9-RNP, values are expressed as % fluorescence reduction. Amphiphile concentration was 5 μM in all cases. All experiments were performed in triplicate.
Tables 14-19 show the mean (triplicates) fluorescence intensity measured after the transfection of EGFP mRNA by different amphiphiles at different concentrations in a variety of cell lines. Background fluorescence values, accounted by untreated control cells, were subtracted for processing.

HepG2 cells [2] = test: RLuc pDNA delivery, robotic library screening, HepG2
Description: (§2) Cells were seeded in a 96 well plate the day before the experiment at a concentration of 60,000 cell/mL (100 μL/w) in DMEM+10% FBS+1% Gln-Abt. For robotic library screening, the delivery of pDNA encoding for the expression of Renilla luciferase gene (RLuc, pRL-CMV (Promega, #E2261)) in six different cell lines was performed. Amphihilic molecule stock solutions in DMSO were diluted with DMEM and freshly mixed with pDNA stock solutions in DMEM prior to transfection experiments, to afford several complexes at different amphiphile concentration (2-10 μM) while maintaining a constant final pDNA concentration of 2 ng/μL. The mixture was shaken for 30 min at room temperature before the addition to the cells. The cell medium was aspirated, and cells were washed twice with PBS. Finally, 50 μL of the complex's solution were added to the cells and incubated for 4 h. After the incubation, the medium was replaced by 100 μL of fresh DMEM supplemented with 10% FBS. 72 hours after transfection the DMEM was removed, cells were washed once with HBSS and 90 μL of HBSS were added to each well. Cells were incubated at 37° C. for 30 minutes. Then basal luminescence levels were read in a plate reader. Immediately, 10 μL of coelenterazine h in HBSS were added to each well (5 μM final concentration) and cells were incubated at 37° C. for 10 minutes. Finally, the total luminescence measurement of the plates was performed. Amphiphile transfection efficiency was compared and normalized to Lipofectamine® 2000 efficiency (value of 1 in Tables 1-5 and 7; bold numbers). All experiments were done in triplicate.
as §1
(§3) Tables 8-13 show the mean (triplicates) luminescent intensity (RLU) measured after the transfection of RLuc pDNA by different amphiphiles at different concentrations in a variety of cell lines. Background luminescence values, accounted by untransfected control cells, were subtracted for processing.

Hela cells = test: RLuc pDNA delivery, robotic library screening, HeLa; conditions: Hela
Description: as §2, with “Amphihilic molecule stock solutions in DMSO were diluted with DMEM and freshly mixed with pDNA stock solutions in DMEM prior to transfection experiments, to afford several complexes at different amphiphile concentration (2-10 μM) while maintaining a constant final pDNA concentration of 2 ng/μL.” left out
as §1, §3

HCT116 cells = test: RLuc pDNA delivery, robotic library screening, HCT116
Hek293 cells = test: RLuc pDNA delivery, robotic library screening, Hek293
A549 cells = test: RLuc pDNA delivery, robotic library screening, A549
Description: as §2, §1, §3

ARPE19 cells = test: RLuc pDNA delivery, robotic library screening, ARPE19

| Substance | mean luminescent intensity (RLuc pDNA) (HepG2 cells [2]; Oleyl, 5 μM) | mean luminescent intensity (RLuc pDNA) (Hela cells; Myristoleyl, 5 μM) | mean luminescent intensity (RLuc pDNA) (Hela cells; Myristoleyl, 10 μM) | mean luminescent intensity (RLuc pDNA) (Hela cells; Myristoleyl, 15 μM) | mean luminescent intensity (RLuc pDNA) (HCT116 cells; Dodecanal, 5 μM) | mean luminescent intensity (RLuc pDNA) (HCT116 cells; Dodecanal, 10 μM) | mean luminescent intensity (RLuc pDNA) (HCT116 cells; Dodecanal, 15 μM) | mean luminescent intensity (RLuc pDNA) (HCT116 cells; Myristoleyl, 5 μM) | mean luminescent intensity (RLuc pDNA) (HCT116 cells; Myristoleyl, 15 μM) | mean luminescent intensity (RLuc pDNA) (HCT116 cells; Palmitoleyl, 5 μM) | mean luminescent intensity (RLuc pDNA) (HCT116 cells; Petroselinyl, 5 μM) | mean luminescent intensity (RLuc pDNA) (Hek293 cells; Dodecanal, 5 μM) | mean luminescent intensity (RLuc pDNA) (Hek293 cells; Palmitoleyl, 10 μM) | mean luminescent intensity (RLuc pDNA) (Hek293 cells; Petroselinyl, 5 μM) | mean luminescent intensity (RLuc pDNA) (Hek293 cells; Petroselinyl, 10 μM) | mean luminescent intensity (RLuc pDNA) (A549 cells; Oleyl, 5 μM) | mean luminescent intensity (RLuc pDNA) (ARPE19 cells; Dodecanal, 5 μM) | mean luminescent intensity (RLuc pDNA) (ARPE19 cells; Myristoleyl, 5 μM) | mean luminescent intensity (RLuc pDNA) (ARPE19 cells; Myristoleyl, 10 μM) | mean luminescent intensity (RLuc pDNA) (ARPE19 cells; Myristoleyl, 15 μM) | also measured |
| --- | --- | --- | --- | --- | --- | --- | --- | --- | --- | --- | --- | --- | --- | --- | --- | --- | --- | --- | --- | --- | --- |
| Ac-RRK*K*RK*LRRLLRL-NH2 [13(3b)] | 128030 RLU | 893 RLU | 446 RLU | 338 RLU | 101412 RLU | 17841 RLU | 3435 RLU | 34451 RLU | 504 RLU | 65487 RLU | 11255 RLU | 233706 RLU | 33115 RLU | 100988 RLU | 48097 RLU | 9759 RLU | 4597 RLU | 2571 RLU | 86 RLU | 64 RLU | mean fluorescence intensity after transfection of EGFP mRNA (HepG2 cells [1]; Palmitoleyl, 5 μM): 1176; mean fluorescence intensity after transfection of EGFP mRNA (HepG2 cells [1]; Palmitoleyl, 10 μM): −335; mean fluorescence intensity after transfection of EGFP mRNA (HepG2 cells [1]; Palmitoleyl, 15 μM): −37; mean fluorescence intensity after transfection of EGFP mRNA (HepG2 cells [1]; Petroselinyl, 10 μM): 189; mean luminescent intensity (RLuc pDNA) (HepG2 cells [2]; Oleyl, 10 μM): 4005 RLU; mean luminescent intensity (RLuc pDNA) (HepG2 cells [2]; Oleyl, 15 μM): −1204 RLU; mean luminescent intensity (RLuc pDNA) (Hela cells; Petroselinyl, 5 μM): 590 RLU; mean luminescent intensity (RLuc pDNA) (HCT116 cells; Oleyl, 5 μM): 18257 RLU; mean luminescent intensity (RLuc pDNA) (Hek293 cells; Palmitoleyl, 5 μM): 97665 RLU; mean luminescent intensity (RLuc pDNA) (A549 cells; Dodecanal, 15 μM): 2061 RLU; mean luminescent intensity (RLuc pDNA) (A549 cells; Oleyl, 10 μM): 1493 RLU; mean luminescent intensity (RLuc pDNA) (A549 cells; Oleyl, 15 μM): 1440 RLU; mean luminescent intensity (RLuc pDNA) (ARPE19 cells; Petroselinyl, 5 μM): 5548 RLU |
| Ac-RRLK*RK*LRRLK*RL-NH2 (Ac-RRLK(NHNH2)RK(NHNH2)LRRLK(NHNH2)RL-NH2; not fully specified; printed as Ac-RRLK*RK*LRRLK*RL-NH2; also: K*4,K*6,K*11: native or modified lysine (ε-amide to a linker)) [13(2 + 1)] | 116466 RLU | 564 RLU | 379 RLU | 452 RLU | 132238 RLU | 6721 RLU | 2207 RLU | 70015 RLU | 1114 RLU | 105588 RLU | 70216 RLU | 269506 RLU | 59470 RLU | 78739 RLU | 31561 RLU | 3288 RLU | 10116 RLU | 2549 RLU | −28 RLU | −36 RLU | mean luminescent intensity (RLuc pDNA) (HepG2 cells [2]; Dodecanal, 5 μM): 322366 RLU; mean luminescent intensity (RLuc pDNA) (HepG2 cells [2]; Dodecanal, 10 μM): 17040 RLU; mean luminescent intensity (RLuc pDNA) (HepG2 cells [2]; Dodecanal, 15 μM): 2698 RLU; mean luminescent intensity (RLuc pDNA) (HepG2 cells [2]; Myristoleyl, 5 μM): 418253 RLU; mean luminescent intensity (RLuc pDNA) (HepG2 cells [2]; Myristoleyl, 10 μM): 85339 RLU; mean luminescent intensity (RLuc pDNA) (HepG2 cells [2]; Myristoleyl, 15 μM): 23239 RLU; mean luminescent intensity (RLuc pDNA) (HepG2 cells [2]; Palmitoleyl, 5 μM): 353987 RLU; mean luminescent intensity (RLuc pDNA) (HepG2 cells [2]; Palmitoleyl, 10 μM): 97075 RLU; mean luminescent intensity (RLuc pDNA) (HepG2 cells [2]; Petroselinyl, 5 μM): 168828 RLU; mean luminescent intensity (RLuc pDNA) (Hela cells; Palmitoleyl, 5 μM): 1206 RLU; mean luminescent intensity (RLuc pDNA) (A549 cells; Dodecanal, 5 μM): 24508 RLU; mean luminescent intensity (RLuc pDNA) (A549 cells; Dodecanal, 10 μM): 1332 RLU; mean luminescent intensity (RLuc pDNA) (A549 cells; Myristoleyl, 5 μM): 11594 RLU; mean luminescent intensity (RLuc pDNA) (A549 cells; Myristoleyl, 10 μM): 2240 RLU; mean luminescent intensity (RLuc pDNA) (A549 cells; Palmitoleyl, 5 μM): 22640 RLU; mean luminescent intensity (RLuc pDNA) (A549 cells; Palmitoleyl, 10 μM): 4550 RLU; mean luminescent intensity (RLuc pDNA) (A549 cells; Petroselinyl, 5 μM): 19295 RLU; mean luminescent intensity (RLuc pDNA) (A549 cells; Petroselinyl, 15 μM): 2435 RLU; mean luminescent intensity (RLuc pDNA) (ARPE19 cells; Palmitoleyl, 5 μM): 5094 RLU; mean luminescent intensity (RLuc pDNA) (ARPE19 cells; Petroselinyl, 5 μM): 4118 RLU |
